Results as given in patent publication US20060135480A1, “Derivatives of succinic and glutaric acids and analogs thereof useful as inhibitors of phex” (Enobia Pharma, priority 2002, published 2006).

Target: T1, sPHEX (Homo sapiens, UniProt P78562)
T1 construct: The soluble form of the metallopeptidase PHEX (sPHEX) was purified to homogeneity; made in house
T1 sequence (P78562 53-749 limits assumed): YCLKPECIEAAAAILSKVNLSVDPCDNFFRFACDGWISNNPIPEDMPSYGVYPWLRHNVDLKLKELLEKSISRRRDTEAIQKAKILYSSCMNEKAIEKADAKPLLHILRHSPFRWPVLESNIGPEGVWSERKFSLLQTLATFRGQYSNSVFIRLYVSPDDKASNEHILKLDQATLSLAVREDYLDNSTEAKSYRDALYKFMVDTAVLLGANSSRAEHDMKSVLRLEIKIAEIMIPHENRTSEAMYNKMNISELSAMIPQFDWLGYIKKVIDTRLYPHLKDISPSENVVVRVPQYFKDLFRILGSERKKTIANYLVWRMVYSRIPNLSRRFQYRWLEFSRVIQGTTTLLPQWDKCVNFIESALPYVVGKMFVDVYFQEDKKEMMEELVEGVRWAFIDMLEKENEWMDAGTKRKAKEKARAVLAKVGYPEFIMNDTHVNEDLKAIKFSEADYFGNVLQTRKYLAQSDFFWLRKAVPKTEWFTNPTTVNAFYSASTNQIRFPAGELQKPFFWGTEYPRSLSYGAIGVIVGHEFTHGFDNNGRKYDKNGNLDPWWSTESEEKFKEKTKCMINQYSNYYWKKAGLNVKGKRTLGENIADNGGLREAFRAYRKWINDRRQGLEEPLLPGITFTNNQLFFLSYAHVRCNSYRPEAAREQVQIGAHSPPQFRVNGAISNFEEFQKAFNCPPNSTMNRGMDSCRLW
Assay: sPHEX inhibitor IC50 determination using a fluorogenic substrate (Abz-GFSDYK-Dnp, S3)
Type: biochemical
Settings: fluorogenic substrate 20 μM, 100 ng sPHEX, pH 6.5
Procedure: The soluble form of the metallopeptidase PHEX (sPHEX) was purified to homogeneity according to the methods of Boileau and Crine (WO 00/50580). sPHEX quantity was measured with the Bradford assay (BioRad) using BSA as a standard.
sPHEX activity was determined using a fluorogenic substrate in which an increase of fluorescence was proportional to substrate conversion to products.
S3 was synthesized at Dr. Gilles Lajoie's laboratories (University of Western Ontario, Canada) by standard solid phase peptide synthesis. The fluorescent reaction product was excited at 320 nm to fluoresce at 420 nm. Fluorescence was recorded at 420 nm every five minutes over a one-hour period on a fluorescence plate reader (Perkin-Elmer, HTS-7000) to calculate the initial rate of the reaction. Typically, the reaction was carried out in 200 μl of buffer M (50 mM Mes(NaOH) pH 6.5, 150 mM NaCl) containing 100 ng of purified sPHEX and 20 μM of fluorigenic substrate to initiate the reaction. Enzymatic activity was determined by subtracting either the initial rate of substrate in buffer (solvolysis), or the typical reaction rate in which 5 mM EDTA was added prior to initiating the reaction.
sPHEX inhibitor IC50 determinations were done using the tested inhibitor at various concentrations coming from a serial dilution (usually ranging from 10^−3 M to 10^−12 M) in the reaction described above. IC50 values were calculated using the iterative four parameters non-linear regression formula from the GraphPad™ software (Prism).

IC50 [nM]	SMILES
1300	CNC(=O)[C@H](Cc1c[nH]c2ccccc12)NC(=O)[C@H](CC(=O)O)NC(=O)CS [Example 115, N-[2-(1H-indol-3-yl)-methylcarbamoyl-ethyl]-3-(2-mercapto-acetylamino)-succinamic acid]
5	CC(C)[C@H](S)C(=O)N[C@@H](CC(=O)O)C(=O)N[C@@H](Cc1c[nH]c2ccccc12)C(=O)O [Example 92, N-[1-Carboxy-2-(1H-indol-3-yl)-ethyl]-3-(2-mercapto-3-methyl-butyrylamino)-succinamic acid]
860	O=C(O)CC(CC(=O)NO)C(=O)NCCOc1ccccc1 (centres unmarked) [Example 138, 4-Hydroxycarbamoyl-3-(2-phenoxy-ethylcarbamoyl)-butyric acid]
560	O=C(O)CC(CC(=O)NO)C(=O)NCCCCc1ccccc1 (centres unmarked) [Example 134, 4-Hydroxycarbamoyl-3-(4-phenyl-butylcarbamoyl)-butyric acid]
6	O=C(O)C[C@H](NC(=O)[C@@H](S)Cc1ccc(F)cc1)C(=O)N[C@@H](Cc1c[nH]c2ccccc12)C(=O)O [Example 100, N-[1-Carboxy-2-(1H-indol-3-yl)-ethyl]-3-[3-(4-fluoro-phenyl)-2-mercapto-propionylamino]-succinamic acid]
8	O=C(O)C[C@H](NC(=O)[C@@H](S)Cc1ccc(-c2ccccc2)cc1)C(=O)N[C@@H](Cc1c[nH]c2ccccc12)C(=O)O [Example 98, 3-(3-Biphenyl-4-yl-2-mercapto-propionylamino)-N-[1-Carboxy-2-(1H-indol-3-yl)-ethyl]-succinamic acid]
190	N#Cc1ccc(-c2ccc(CCNC(=O)C(CC(=O)O)CC(=O)NO)cc2)cc1 (centres unmarked) [Example 130, 3-[2-(4′-Cyano-biphenyl-4-yl)-ethylcarbamoyl]-4-hydroxycarbamoyl-butyric acid]
54	O=C(O)CC(CC(=O)NO)C(=O)NCC(c1ccccc1)c1ccccc1 (centres unmarked) [Example 142, 3-(2,2-Diphenyl-ethylcarbamoyl)-4-hydroxycarbamoyl-butyric acid]
7	O=C(O)C[C@H](NC(=O)[C@@H](S)Cc1ccccc1)C(=O)N[C@@H](Cc1ccccc1)C(=O)O [Example 109, N-[1-Carboxy-2-phenyl-ethyl)-3-(2-mercapto-3-phenyl-propionylamino)-succinamic acid]
22	O=C(O)C[C@H](NC(=O)[C@@H](S)Cc1c[nH]c2ccccc12)C(=O)N[C@@H](Cc1c[nH]c2ccccc12)C(=O)O [Example 103, N-[1-Carboxy-2-(1H-indol-3-yl)-ethyl]-3-[3-(1H-indol-3-yl)-2-mercapto-propionylamino]-succinamic acid]
7	O=C(O)C[C@H](NC(=O)[C@@H](S)Cc1ccccc1)C(=O)N[C@@H](Cc1ccc(O)cc1)C(=O)O [Example 108, N-[1-Carboxy-2-(4-hydroxy-phenyl)-ethyl]-3-(2-mercapto-3-phenyl-propionylamino)-succinamic acid]
